Entries after “also recorded” stand apart in the source; their conditions may differ.
Columns and labels:
[1] = molecular target: T1, PELP1-G9a complex (Homo sapiens, UniProt Q8IZL8); experiment: In vitro peptide competition assay, G9a-GST on glutathione beads with purified PELP1; assay type: binding; conditions: peptides 2, 5, 10 μM, 2 hours, FIGS. 2C, 7B, 9
T1 construct: purified bacterial, full-length PELP1; host or cells: bacteria (PELP1)
Protocol: FIGS. 2A-D. (FIG. 2A) Immunoprecipitation was performed on nuclear lysates obtained from ZRPELP1 cells grown in 5% DCC for 72 hours and treated with estradiol 10^−7 M for 12 hours. PELP1 was immunoprecipitated and western blotting was performed for PELP1 and G9a expression with IgG as the control. (FIG. 2B) Various fragments of PELP1 bound to glutathione beads were incubated with recombinant G9a for 2 hours. Beads were washed, run on an SDS-PAGE gel and immunoblotted for G9a expression. GST tag alone is shown as control. (FIG. 2C) Recombinant G9a-GST was bound to glutathione beads and incubated with purified PELP1 and peptides for 2 hours. Beads were washed and run on SDS-PAGE gel. (FIG. 2D) ZR75 cells were transfected with ERE-luciferase, PELP1 and/or G9a plasmids and treated with peptide for 24 hours and estradiol 10^−7 M for 12 hours. Relative luciferase activity is shown.
FIGS. 7A-E. (FIG. 7A) Bacterial purified PELP1 was incubated with biotin-tagged peptides bound to avidin beads for one hour. Beads were washed, run on SDS-PAGE gel and probed for PELP1 expression. Input of bacterial PELP1 is shown as control. (FIG. 7B) Recombinant G9a-GST was bound to glutathione beads and incubated with purified PELP1 and peptides for 2 hours. Beads were washed and run on SDS-PAGE gel. (+2 μM, ++5 μM, +++10 μM). (FIG. 7C) ZRGST and ZRPELP1GST cells were transfected in triplicate with TopFlash β-catenin reporter and treated with TAT or PIP1 (10 μM) for 24 hours. Relative luciferase activity is shown. (FIG. 7D) MCF7vec and MCF7PELP1 cells were treated with TAT or PIP1 (10 μM) and toxicity was measured by CytoTox-Flour Cytotoxicity Assay. (FIG. 7E) ZR75 and ZR75PELP1 cells were treated with TAT, PIP1 or PIP2 for 24 hours and immunoblotted for PELP1 and ERα expression with actin as the loading control.
FIG. 9. […]
Peptides were linked to EZ-Link NHS-Biotin (Thermo Scientific) per manutfacturer's protocol. […] Beads were washed 3× with IP buffer (20 mM HEPES pH 7.9, 20% glycerol, 0.1% triton-x, 100 mM KCl), eluted with SDS-dye, and PELP1 expression was determined by western blotting. […]

[2] = tested on: ZRPELP1 cells; experiment: Initial screen, proliferation assay of PELP1-overexpressing breast cancer cells; assay type: cell-based, Human; conditions: peptide every 3 days, absorbance at 7 days, FIG. 1B
Protocol: FIGS. 1A-D. (FIG. 1A) Diagram for yeast two hybrid screen to identify PELP1 binding peptides. Four regions of PELP1 were tagged with the binding domain and a library of 10^6 random peptides (Clontech) were bound to an activation domain. The number of positive colonies per region of PELP1 are shown in the graph. (FIG. 1B) A proliferation assay was performed with […]1 cells plated in a 96 well plate, treated with peptide every 3 days and absorbance was measured at 7 days. (FIG. 1C) ZR75 were plated in a 6-well plate on coverslips in 8% RPMI and treated with 10 uM FITC labeled peptide for 30, 60, or 120 minutes. They were then fixed with pararformaldehyde, stained for PELP1 (red) and DAPI (blue), and imaged by confocal microscopy to monitor intracellular delivery. (FIG. 1D) ZR75 cells were starved of estrogen for 72 hours and treated with estradiol 10^-7 M for 12 hours. Nuclear lysate was incubated with biotin-tagged peptides bound to avidin beads for one hour. Beads were washed, run on SDS-PAGE gel and probed for PELP1 expression. Input of nuclear lysate is shown as control. Cell proliferation rates were measured by using MTT Cell Viability Assay in 96-well plates. Model cells were seeded in 96-well plates (1×10^3 cells/well) in DMEM or RPMI medium containing 10% serum. After an overnight incubation, cells were treated with varying concentrations of the peptides for 3-7 days and growth inhibition was determined by using traditional MTT assay (Sigma) following manufacturer's instructions.

[3] = tested on: TNBC (MDA-MB-231 and MDA-MB-468) and ER-positive (ZR-75 and MCF-7) breast cancer cell lines; experiment: MTT proliferation assay of PIP3, TNBC and ER-positive breast cancer cell lines; assay type: cell-based; conditions: 10 μM and dose response, FIGS. 13A-C
Protocol: FIGS. 13A-C. […] (FIG. 13A) Breast cancer cells were treated with vehicle or 10 μM PIP3 and proliferation was measured by using the MTT assay. (FIGS. 13B-C) Dose response curves for PIP3. Cell proliferation rates were measured by using MTT Cell Viability Assay in 96-well plates. Model cells were seeded in 96-well plates (1×10^3 cells/well) in DMEM or RPMI medium containing 10% serum. After an overnight incubation, cells were treated with varying concentrations of the peptides for 3-7 days and growth inhibition was determined by using traditional MTT assay (Sigma) following manufacturer's instructions.

[4] = tested on: T98G, LN229 and U251 glioma cells and patient-derived primary GBM cells; experiment: MTT proliferation assay, glioma cell lines and primary GBM cells; assay type: cell-based; conditions: FIGS. 15A-D
Protocol: FIGS. 15A-D. PIPs inhibit proliferation of glioma cells. (FIGS. 15A-B) T98G, LN229 and U251 glioma cells were treated with vehicle or varying concentration of PIP1 or PIP3, and proliferation was measured by using the MTT assay. (FIGS. 15C-D) Patient-derived primary GBM cells were treated with PIP1 or PIP3 and proliferation was measured using the MTT assay. Cell proliferation rates were measured by using MTT Cell Viability Assay in 96-well plates. Model cells were seeded in 96-well plates (1×10^3 cells/well) in DMEM or RPMI medium containing 10% serum. After an overnight incubation, cells were treated with varying concentrations of the peptides for 3-7 days and growth inhibition was determined by using traditional MTT assay (Sigma) following manufacturer's instructions.

[5] = tested on: MDA-MB-231 and MDA-MB-468; experiment: MTT proliferation assay, triple negative breast cancer cell lines; assay type: cell-based; conditions: preliminary studies
Protocol: FIGS. 8A-C. (FIG. 8A) ZR75PELP1KD cells were treated in triplicate with TAT or PIP1 (10, 20, or 50 μM) every 3 days and proliferation was measured by MTT assay on day 7. (FIG. 8B) MCF7PELP1KD cells were treated in triplicate with TAT or PIP1 (10, 20, or 50 μM) every 3 days and proliferation was measured by MTT assay on day 7. (FIG. 8C) MDAMB231 and MDAMB468 cells were treated in triplicate with TAT or PIP1 (10 μM) every 3 days and proliferation was measured by MTT assay on day 7. Cell proliferation rates were measured by using MTT Cell Viability Assay in 96-well plates. Model cells were seeded in 96-well plates (1×10^3 cells/well) in DMEM or RPMI medium containing 10% serum. After an overnight incubation, cells were treated with varying concentrations of the peptides for 3-7 days and growth inhibition was determined by using traditional MTT assay (Sigma) following manufacturer's instructions.

[6] = tested on: ERE-luciferase in ZRPELP1 cells; experiment: ERE-luciferase reporter gene assay in PELP1 overexpressing cells; assay type: cell-based, Human; conditions: peptide 24 hours, estradiol 12 hours, compared to control TAT, FIGS. 4B, 10
Protocol: (§1) FIGS. 4A-E. (FIG. 4A) ZR75vec, ZR75PELP1, MCF7vec and MCF7PELP1 cells were treated in triplicate with TAT, PIP1 or PIP1 deletions (Del1, Del2, Del3) at 10 uM every 3 days and proliferation was measured by MTT assay on day 7. (FIG. 4B) ZRPELP1 cells were transfected with ERE-luciferase and treated with TAT, PIP1, or PIP2 for 24 hours and with estradiol for 12 hours. Relative luciferase activity was measured in triplicate. (FIG. 4C) ZR75 cells were grown in 5% DCC media for 72 hours, treated with TAT or PIP1 every 3 days, and treated with estradiol 10^−7 M for 12 hours. Proliferation was measured in triplicate on day 7 by MTT assay at 595 nm. (FIG. 4D) MCF7-Letrozole resistant cells were grown in 5% DCC media for 72 hours, treated with TAT, PIP1 or PIP2 every 3 days, and letrozole or estradiol 10^−7 M for 12 hours. Proliferation was measured in triplicate on day 7 by MTT assay at 595 nm. (FIG. 4E) MCF7-Tamoxiefn resistant cells were grown in 5% DCC media for 72 hours, treated with TAT, PIP1 or PIP2 every 3 days, and tamoxifen or estradiol 10^−7 M for 12 hours. Proliferation was measured in triplicate on day 7 by MTT assay at 595 nm.
FIG. 10. ERE-luciferase assay. […]
Model cells were seeded in 6-well plates. […] Luciferase activity was measured by using the luciferase assay system (Promega, Madison, Wis.).

[7] = tested on: MCF7-TamR and MCF7-LTLT cells; experiment: Therapy resistance assays, MTT; assay type: cell-based, Human; conditions: MCF7-TamR and MCF7-LTLT, 10 μM, FIGS. 4D-E, 11
Protocol: as §1
FIG. 11. Cell proliferation assay: letrozole-resistant MCF-7-LTLT cells and Tamoxifen resistant MCF7-Tam cells were treated with TAT, PIP1, or PIP2 (10 μM)+/− letrozole or Tamoxifen.
Tamoxifen (Tam) therapy resistant MCF7-TamR and letrozole resistant MCF7-LTLT cells were cultured in tamoxifen or letrozole (10^-7M) containing media in the presence or absence of peptides and proliferation was measured by MTT assay (Sigma) following manufacturer's instructions.

T1 sequence (Q8IZL8 2-1130, one chain of several): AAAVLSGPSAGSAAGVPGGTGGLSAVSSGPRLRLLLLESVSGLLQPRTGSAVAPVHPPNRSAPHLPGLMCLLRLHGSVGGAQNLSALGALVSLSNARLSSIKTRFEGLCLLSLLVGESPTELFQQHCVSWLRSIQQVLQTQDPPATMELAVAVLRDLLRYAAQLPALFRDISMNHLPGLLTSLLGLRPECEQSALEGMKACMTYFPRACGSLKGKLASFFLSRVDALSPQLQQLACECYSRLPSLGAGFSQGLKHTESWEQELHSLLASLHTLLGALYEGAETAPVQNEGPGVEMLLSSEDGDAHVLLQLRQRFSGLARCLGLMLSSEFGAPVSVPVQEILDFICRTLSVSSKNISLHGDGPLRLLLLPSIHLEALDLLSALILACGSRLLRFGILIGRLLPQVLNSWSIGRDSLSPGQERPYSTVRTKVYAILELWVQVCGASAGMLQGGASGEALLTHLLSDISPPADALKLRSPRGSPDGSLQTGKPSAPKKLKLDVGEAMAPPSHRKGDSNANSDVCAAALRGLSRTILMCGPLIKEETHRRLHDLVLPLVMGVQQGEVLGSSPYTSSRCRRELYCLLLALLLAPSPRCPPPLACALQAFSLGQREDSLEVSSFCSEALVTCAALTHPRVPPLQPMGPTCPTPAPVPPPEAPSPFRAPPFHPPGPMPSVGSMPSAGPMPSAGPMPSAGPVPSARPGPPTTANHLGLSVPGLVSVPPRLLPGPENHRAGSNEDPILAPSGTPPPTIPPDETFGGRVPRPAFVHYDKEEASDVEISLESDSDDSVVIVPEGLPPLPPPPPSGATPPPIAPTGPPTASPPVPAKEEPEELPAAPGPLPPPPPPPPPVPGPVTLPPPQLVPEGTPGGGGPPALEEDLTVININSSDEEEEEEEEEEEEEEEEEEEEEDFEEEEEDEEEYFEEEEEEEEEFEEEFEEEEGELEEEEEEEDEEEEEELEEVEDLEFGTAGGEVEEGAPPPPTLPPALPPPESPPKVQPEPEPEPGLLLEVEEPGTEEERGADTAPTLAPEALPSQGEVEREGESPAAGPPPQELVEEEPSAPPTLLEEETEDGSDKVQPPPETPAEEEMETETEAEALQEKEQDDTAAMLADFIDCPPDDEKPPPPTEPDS

| Sequence | disruption of PELP1 interaction with G9a/EHMT2 [1] | PELP1-mediated breast cancer cell proliferation [2] | growth of TNBC and ER-positive breast cancer cell lines [3] | concentration of potent activity on glioma proliferation [4] | proliferation of glioma cell lines and primary GBM cells ([4]; varying concentration) | activity on TNBC cells [5] | ERE activation (ERE-luciferase) [6] | proliferation of therapy resistant cell lines [7] |
| --- | --- | --- | --- | --- | --- | --- | --- | --- |
| GRKKRRQRRRGG [TAT, reference compound] | no effect | no significant effect | – | – | – | – | – | – |
| GRKKRRQRRRGGFKEWWRIDMVWLHRVRRNSY [PIP3] | – | – | inhibited growth; also recorded: inhibits proliferation of breast cancer cells | 5 to 10 µM | significantly reduced their proliferation in a dose-dependent manner | has activity in triple negative cells | – | – |
| GRKKRRQRRRGGIMGRGLCMRGVVRGRGRN [PIP2] | disrupted by the addition of either of the two peptides in a dose-dependent manner | significantly inhibit PELP1-mediated proliferation | – | – | – | – | significantly decreased ERE activation | inhibited the proliferation; also recorded: efficiently reduce the growth of therapy resistant cells |

Reference: patent US10682388B2, “Targeting of PELP1 in cancer therapy” (THE BOARD OF REGENTS OF THE UNIVERSITY OF TEXAS SYSTEM, priority 2014, dated 2020)
